Laboratory results as given in patent US10618916B2, “Heterocyclic compounds as immunomodulators” (Incyte Corporation, priority 2018, dated 2020).

Assays:
PD-L1 = PD-L1 (Homo sapiens (Human), UniProt Q9NZQ7); assay: PD-L1 whole blood internalization assay; format: cell-based; conditions: 24 HR, PD-L1 expression on CD14+ cells, human interferon γ
[1] = biological target: PD-1/PD-L1 protein/protein interaction (recombinant human PD-L1 and human PD-1) (Homo sapiens (Human), UniProt Q9NZQ7); assay: Homogeneous Time-Resolved Fluorescence (HTRF) PD-1/PD-L1 binding assay
Method in brief: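 Human PD-L1 (19-238, C-His; 10 nM final) and PD-1 (25-167, C-Fc; 3 nM final) preincubated 40 min with inhibitor in PBS pH 7.4, 0.05% Tween-20, 0.1% BSA, 1% DMSO, 25 °C. Eu-anti-human IgG (1 nM) and anti-His-APC (20 nM) added for 60 min; 665/620 nm ratio; IC50 from percent-control curves.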

[2] = system: U2OS/PD-L1 cells and Jurkat-PD-1-SHP cells; assay: Src homology region 2 domain-containing phosphatase (SHP) assay; format: cell-based; conditions: Homo sapiens, U2OS
Method in brief: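 U2OS/PD-L1 and Jurkat-PD-1-SHP cells (5000 each per well) were co-incubated with compound for 2 h at 37 °C in RPMI1640 with 1% FBS, 0.05% DMSO final. PathHunter chemiluminescence was read after 1 h at room temperature, and IC50 was fitted from percent of DMSO-control activity.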

[3] = system: PD-L1 aAPC/CHO-K1 cells and Jurkat-PD-1-NFAT effector cells; assay: Nuclear factor of activated T-cells (NFAT) assay; format: cell-based; conditions: Cricetulus griseus, CHO-K1
Method in brief: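 CHO-K1 cells expressing PD-L1 aAPC were co-cultured with Jurkat-PD-1-NFAT effector cells in RPMI 1640 with 1% FBS and compound (0.4% DMSO; top concentration 2 μM) for 24 h at 37 °C. Bio-Glo luminescence was read, fold induction normalised to DMSO wells, and EC50 fitted from percent of control compound activity.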

Chain of PD-1/PD-L1 protein/protein interaction (recombinant human PD-L1 and human PD-1) (Q9NZQ7 19-238): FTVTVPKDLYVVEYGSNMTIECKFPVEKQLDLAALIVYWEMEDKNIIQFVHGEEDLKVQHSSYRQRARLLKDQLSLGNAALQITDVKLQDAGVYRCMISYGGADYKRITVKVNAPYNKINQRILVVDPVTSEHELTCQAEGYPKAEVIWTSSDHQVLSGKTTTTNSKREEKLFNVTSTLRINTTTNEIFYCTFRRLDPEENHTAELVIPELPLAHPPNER
Chain of PD-L1 (Q9NZQ7 19-290): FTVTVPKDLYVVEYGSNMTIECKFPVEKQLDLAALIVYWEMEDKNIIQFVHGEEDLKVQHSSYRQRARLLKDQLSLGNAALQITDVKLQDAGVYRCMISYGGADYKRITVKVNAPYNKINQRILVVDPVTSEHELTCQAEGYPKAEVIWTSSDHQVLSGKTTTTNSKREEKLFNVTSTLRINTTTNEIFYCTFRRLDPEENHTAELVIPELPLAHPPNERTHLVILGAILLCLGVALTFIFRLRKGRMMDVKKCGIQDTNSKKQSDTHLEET

Cn1c(C(=O)Nc2cccc(-c3cccc(NC(=O)c4nc5c(n4C)CCN(CCC46CCC(C(=O)O)(CC4)C6)C5)c3C#N)c2Cl)nc2c1CCN(CCC13CCC(C(=O)O)(CC1)C3)C2 [Example 51, 4,4′-(((((2-chloro-2′-cyano-[1,1′-biphenyl]-3,3′-diyl)bis(azanediyl))bis(carbonyl))bis(1-methyl-1,4,6,7-tetrahydro-5H-imidazo[4,5-c]pyridine-2,5-diyl))bis(ethane-2,1-diyl))bis(bicyclo[2.2.1]heptane-1-carboxylic acid)]
IC50 (PD-L1): 10 to 100 nM | IC50 [1]: ≤ 5 nM | IC50 [2]: ≤ 10 nM | EC50 [3]: 10 to 100 nM

Cc1c(NC(=O)c2nc3c(n2C)CCN(CCC24CCC(C(=O)O)(CC2)C4)C3)cccc1-c1cccc(NC(=O)c2nc3c(n2C)CCN(CCC24CCC(C(=O)O)(CC2)C4)C3)c1C [Example 54, 4,4′-(((((2,2′-dimethyl-[1,1′-biphenyl]-3,3′-diyl)bis(azanediyl))bis(carbonyl))bis(1-methyl-1,4,6,7-tetrahydro-5H-imidazo[4,5-c]pyridine-2,5-diyl))bis(ethane-2,1-diyl))bis(bicyclo[2.2.1]heptane-1-carboxylic acid)]
IC50 (PD-L1): 100 to 500 nM | IC50 [1]: ≤ 5 nM | IC50 [2]: ≤ 10 nM | EC50 [3]: 10 to 100 nM

Cc1c(NC(=O)c2nc3c(n2C)CCN(CCC24CCC(C(=O)O)(CC2)C4)C3)cccc1-c1cccc(NC(=O)c2nc3c(n2C)CCN(C2CCOCC2)C3)c1C [Example 56, 4-(2-(2-((2,2′-dimethyl-3′-(1-methyl-5-(tetrahydro-2H-pyran-4-yl)-4,5,6,7-tetrahydro-1H-imidazo[4,5-c]pyridine-2-carboxamido)-[1,1′-biphenyl]-3-yl)carbamoyl)-1-methyl-1,4,6,7-tetrahydro-5H-imidazo[4,5-c]pyridin-5-yl)ethyl)bicyclo[2.2.1]heptane-1-carboxylic acid]
IC50 (PD-L1): 100 to 500 nM | IC50 [1]: ≤ 5 nM | IC50 [2]: ≤ 10 nM | EC50 [3]: 10 to 100 nM

Cc1c(NC(=O)c2nc3c(n2C)CCN(CCC24CCC(C(=O)O)(CC2)C4)C3)cccc1-c1cccc(NC(=O)c2nc3c(n2C)CCN(C[C@@H](C)O)C3)c1C [Example 57, (R)-4-(2-(2-((3′-(5-(2-hydroxypropyl)-1-methyl-4,5,6,7-tetrahydro-1H-imidazo[4,5-c]pyridine-2-carboxamido)-2,2′-dimethyl-[1,1′-biphenyl]-3-yl)carbamoyl)-1-methyl-1,4,6,7-tetrahydro-5H-imidazo[4,5-c]pyridin-5-yl)ethyl)bicyclo[2.2.1]heptane-1-carboxylic Acid]
IC50 (PD-L1): 10 to 100 nM | IC50 [1]: ≤ 5 nM | IC50 [2]: ≤ 10 nM | EC50 [3]: 10 to 100 nM

Cc1c(NC(=O)c2nc3c(n2C)CCN(CCC24CCC(C(=O)O)(CC2)C4)C3)cccc1-c1cccc(NC(=O)c2nc3c(n2C)CCN(C[C@H](C)O)C3)c1C [Example 58, (S)-4-(2-(2-((3′-(5-(2-hydroxypropyl)-1-methyl-4,5,6,7-tetrahydro-1H-imidazo[4,5-c]pyridine-2-carboxamido)-2,2′-dimethyl-[1,1′-biphenyl]-3-yl)carbamoyl)-1-methyl-1,4,6,7-tetrahydro-5H-imidazo[4,5-c]pyridin-5-yl)ethyl)bicyclo[2.2.1]heptane-1-carboxylic acid]
IC50 (PD-L1): 100 to 500 nM | IC50 [1]: ≤ 5 nM | IC50 [2]: ≤ 10 nM | EC50 [3]: 10 to 100 nM

Cn1c(C(=O)Nc2cccc(-c3cccc(NC(=O)c4nc5c(n4C)CCN(CC[C@H]4CC[C@H](C(=O)O)CC4)C5)c3Cl)c2Cl)nc2c1CCN(CCC13CCC(C(=O)O)(CC1)C3)C2 [Example 62, 4-(2-(2-((3′-(5-(2-(trans-4-carboxycyclohexyl)ethyl)-1-methyl-4,5,6,7-tetrahydro-1H-imidazo[4,5-c]pyridine-2-carboxamido)-2,2′-dichloro-[1,1′-biphenyl]-3-yl)carbamoyl)-1-methyl-1,4,6,7-tetrahydro-5H-imidazo[4,5-c]pyridin-5-yl)ethyl)bicyclo[2.2.1]heptane-1-carboxylic acid]
IC50 (PD-L1): 10 to 100 nM | IC50 [1]: ≤ 5 nM | IC50 [2]: ≤ 10 nM | EC50 [3]: 10 to 100 nM

Cn1c(C(=O)Nc2cccc(-c3cccc(NC(=O)c4nc5c(n4C)CCN([C@H]4CC[C@@](C)(C(=O)O)CC4)C5)c3Cl)c2Cl)nc2c1CCN(CCC13CCC(C(=O)O)(CC1)C3)C2 [Example 65, 4-(2-(2-((3′-(5-(cis-4-carboxy-4-methylcyclohexyl)-1-methyl-4,5,6,7-tetrahydro-1H-imidazo[4,5-c]pyridine-2-carboxamido)-2,2′-dichloro-[1,1′-biphenyl]-3-yl)carbamoyl)-1-methyl-1,4,6,7-tetrahydro-5H-imidazo[4,5-c]pyridin-5-yl)ethyl)bicyclo[2.2.1]heptane-1-carboxylic Acid]
IC50 (PD-L1): 10 to 100 nM | IC50 [1]: ≤ 5 nM | IC50 [2]: ≤ 10 nM | EC50 [3]: 10 to 100 nM

Cn1c(C(=O)Nc2cccc(-c3cccc(NC(=O)c4nc5c(n4C)CCN([C@H]4CC[C@](C)(C(=O)O)CC4)C5)c3Cl)c2Cl)nc2c1CCN(CCC13CCC(C(=O)O)(CC1)C3)C2 [Example 66, 4-(2-(2-((3′-(5-(trans-4-carboxy-4-methylcyclohexyl)-1-methyl-4,5,6,7-tetrahydro-1H-imidazo[4,5-c]pyridine-2-carboxamido)-2,2′-dichloro-[1,1′-biphenyl]-3-yl)carbamoyl)-1-methyl-1,4,6,7-tetrahydro-5H-imidazo[4,5-c]pyridin-5-yl)ethyl)bicyclo[2.2.1]heptane-1-carboxylic Acid]
IC50 (PD-L1): 10 to 100 nM | IC50 [1]: ≤ 5 nM | IC50 [2]: ≤ 10 nM | EC50 [3]: ≤ 10 nM
